# Laboratory results as given in patent US12414952B2 (Merck Sharp & Dohme LLC, priority 2018, dated 2025).
# Assays:
# [1] = target: T1, human A2a adenosine receptor (Homo sapiens (Human), UniProt P29274); test: A2a binding affinity using SPA, Method (B); settings: Method (B): [3H]SCH58261 SPA
# Excerpt: The A2a receptor affinity binding assay measured the amount of binding of a tritiated ligand with high affinity for the A2a adenosine receptor to membranes made from HEK293 or CHO cells recombinantly expressing the human A2a adenosine receptor, in the presence of varying concentrations of a compound of the invention. The data were generated using either filtration binding or a homogenous scintillation proximity assay (SPA).
# Method (B): Measurement of A2a Binding Affinity Using SPA
# Binding affinity using SPA was conducted as follows. Test compounds (50 nL) were dispensed into individual wells of a 384-well OptiPlate™ well (Perkin Elmer) by Echo® acoustic liquid transfer (Labcyte). 20 μL of 1.25 nM [^3H] SCH58261 ((7-(2-phenylethyl)-5-amino-2-(2-furyl)-pyrazolo-[4,3-e]-1,2,4-triazolo[1,5-c]pyrimidine)) in DPBS assay buffer (Dulbecco's phosphate buffered saline without calcium and magnesium, ThermoFisher Scientific, Cat. No. A1285601) supplemented with 10 mM MgCl2 was added. A2a receptor-expressing membranes were incubated with 20 μg/mL adenosine deaminase (Roche, Cat. No. 10 102 105 001) for 15 min at room temperature. The receptor-expressing membranes were then combined with wheat germ agglutinin-coated yttrium silicate SPA beads (GE Healthcare, Cat. No. RPNQ0023) in a ratio of 1:1000 (w/w) and incubated for 30 min at room temperature. 30 μL of the membrane/bead mixture (0.25 μg and 25 μg per well respectively) were added to the 384-well OptiPlate™ well. To define total and non-specific binding, wells containing 1% DMSO or 1 μM CGS15943 (Tocris Bioscience, Cat. No. 1699) respectively were also included in the experiment. The plate was incubated for one h at room temperature with agitation. The assay plate was then incubated for an h to allow the beads to settle before data were collected using a TopCount® (Perkin Elmer) scintillation counter. After normalization to total and non-specific binding, the percent effect at each compound concentration was calculated. The plot of percent effect versus the log of compound concentration was analyzed electronically using a 4-parameter logistic fit based on the Levenberg-Marquardt algorithm to generate IC50 values.
# [2] = target: T1, human A2a adenosine receptor; test: A2a binding affinity using radioligand binding, Method (A); settings: Method (A): [3H]SCH58261 filtration binding
# Procedure, shortened: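 Membranes from HEK293 or CHO cells expressing human A2a were preincubated with compound for 15–30 min at room temperature. [3H]SCH58261 was then added (4 nM working dilution) in 50 mM Tris pH 7.4, 10 mM MgCl2, 0.005% Tween20 for 60 min at room temperature. Bound radioactivity after filtration was normalised to total and non-specific binding, and IC50 came from 4-parameter logistic fits.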
# [3] = target: human A2b adenosine receptor (Homo sapiens (Human), UniProt P29275); test: A2b binding affinity, radioligand filtration binding assay; settings: tritiated proprietary A2b antagonist, HEK293 membranes
# Sequence of human A2b adenosine receptor (P29275 whole entry): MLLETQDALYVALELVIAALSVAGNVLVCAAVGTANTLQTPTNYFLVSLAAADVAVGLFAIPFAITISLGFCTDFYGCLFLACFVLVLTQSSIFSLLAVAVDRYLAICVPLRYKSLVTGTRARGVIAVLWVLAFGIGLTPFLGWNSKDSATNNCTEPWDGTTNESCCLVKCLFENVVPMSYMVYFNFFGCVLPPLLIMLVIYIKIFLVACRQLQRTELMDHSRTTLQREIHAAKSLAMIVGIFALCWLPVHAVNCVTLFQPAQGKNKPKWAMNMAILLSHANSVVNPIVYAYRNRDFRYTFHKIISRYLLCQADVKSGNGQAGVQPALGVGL
# Procedure, shortened: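 Membranes from HEK293 cells recombinantly expressing human A2b were incubated with a tritiated proprietary A2b antagonist, with and without compound. Filter-bound radioactivity was counted by scintillation. Percent effect was normalized to total and non-specific binding, and IC50 came from a 4-parameter logistic fit.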
# T1 sequence (P29274 whole entry): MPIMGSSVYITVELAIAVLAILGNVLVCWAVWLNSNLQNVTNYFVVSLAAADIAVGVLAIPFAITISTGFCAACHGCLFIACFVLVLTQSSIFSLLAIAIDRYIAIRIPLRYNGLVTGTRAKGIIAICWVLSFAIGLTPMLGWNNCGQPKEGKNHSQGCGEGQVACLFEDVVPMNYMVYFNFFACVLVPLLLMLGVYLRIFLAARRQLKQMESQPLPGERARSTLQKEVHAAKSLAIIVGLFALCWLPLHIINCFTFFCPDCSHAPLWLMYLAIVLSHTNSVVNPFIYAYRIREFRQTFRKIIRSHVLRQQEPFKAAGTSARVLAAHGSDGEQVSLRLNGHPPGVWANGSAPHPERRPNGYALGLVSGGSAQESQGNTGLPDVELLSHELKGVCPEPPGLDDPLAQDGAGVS
Structure (SMILES),IC50 [1] [nM],IC50 [2] [nM],IC50 [3] [nM]
Cc1nc2c(s1)CN(CCc1nc3c(C)c(-c4ncco4)nc(N)n3n1)CC2 [Example 1.8],2.4,–,–
Cc1nc2c(s1)CN(CCc1nc3c(C)c(-c4cnco4)nc(N)n3n1)CC2 [Example 2.26],6.6,–,–
"Cc1c(-c2ncco2)nc(N)n2nc(Cc3cc[nH]n3)nc12 [Example 7.5, 2-((1H-pyrazol-3-yl)methyl)-8-methyl-7-(oxazol-2-yl)-[1,2,4]triazolo[1,5-c]pyrimidin-5-amine]",4.7,–,–
"Cc1c(-c2ncco2)nc(N)n2nc(Cc3ccccn3)nc12 [Example 9.6, 8-methyl-7-(oxazol-2-yl)-2-(pyridin-2-ylmethyl)-[1,2,4]triazolo[1,5-c]pyrimidin-5-amine]",0.7,–,–
"Cc1cccnc1Cc1nc2c(C)c(-c3ncco3)nc(N)n2n1 [Example 9.8, 8-methyl-2-((3-methylpyridin-2-yl)methyl)-7-(oxazol-2-yl)-[1,2,4]triazolo[1,5-c]pyrimidin-5-amine]",0.6,–,–
"Cc1cccc(Cc2nc3c(C)c(-c4ncco4)nc(N)n3n2)n1 [Example 9.7, 8-methyl-2-((6-methylpyridin-2-yl)methyl)-7-(oxazol-2-yl)-[1,2,4]triazolo[1,5-c]pyrimidin-5-amine]",0.5,–,–
Cc1c(-c2cc(F)cc(F)c2)nc(N)c2nc(Cc3ccccc3)nn12 [Example 3.25],–,1.6,19.8
"Cc1c(-c2ncco2)nc(N)n2nc(Cc3ccc([C@H]4C[C@@](C)(O)C4)cc3)nc12 [Example 5.2, (1s,3s)-3-(4-((5-amino-8-methyl-7-(oxazol-2-yl)-[1,2,4]triazolo[1,5-c]pyrimidin-2-yl)methyl)phenyl)-1-methylcyclobutanol]",–,2.5,1.6
"Cc1c(-c2ncco2)nc(N)n2nc(CCN3CCc4c(cnn4C4CC(F)(F)C4)C3)nc12 [Example 17.10, 2-(2-(1-(3,3-difluorocyclobutyl)-1,4,6,7-tetrahydro-5H-pyrazolo[4,3-c]pyridin-5-yl)ethyl)-8-methyl-7-(oxazol-2-yl)-[1,2,4]triazolo[1,5-c]pyrimidin-5-amine]",–,0.6,20.6
Cc1ccc(F)cc1-c1nc(N)c2nc(Cc3ccccc3)nn2c1C [Example 3.35],–,65.6,700
Cc1c(-c2cc(F)ccc2F)nc(N)c2nc(Cc3ncccc3F)nn12 [Example 4.8],–,18.7,9.3
"Cc1c(-c2ncco2)nc(N)n2nc(CCN3CCc4nn(C5CCCC5)cc4C3)nc12 [Example 17.11, 2-(2-(2-cyclopentyl-2,4,6,7-tetrahydro-5H-pyrazolo[4,3-c]pyridin-5-yl)ethyl)-8-methyl-7-(oxazol-2-yl)-[1,2,4]triazolo[1,5-c]pyrimidin-5-amine]",–,1.3,301
"Cc1c(-c2ncco2)nc(N)n2nc(CNCc3ccc(C(C)(C)O)cn3)nc12 [Example 11.3, 2-(6-((((5-amino-8-methyl-7-(oxazol-2-yl)-[1,2,4]triazolo[1,5-c]pyrimidin-2-yl)methyl)amino)methyl)pyridin-3-yl)propan-2-ol]",–,15.5,40.6
"Cc1c(-c2ncco2)nc(N)n2nc(CCN3CCc4nn(C5CC(F)(F)C5)cc4C3)nc12 [Example 17.9, 2-(2-(2-(3,3-difluorocyclobutyl)-2,4,6,7-tetrahydro-5H-pyrazolo[4,3-c]pyridin-5-yl)ethyl)-8-methyl-7-(oxazol-2-yl)-[1,2,4]triazolo[1,5-c]pyrimidin-5-amine]",–,4.1,97
Cc1c(-c2cccc(F)c2)nc(N)n2nc(CCN3CCn4c(cnc4C(C)C)C3)nc12 [Example 2.15],–,16.4,36.8
